Laboratory results from patent US12486538B2, “Methods of diagnosing alzheimer's disease and risk of progression to alzheimer's disease” (Loma Linda University Health, priority 2016, dated 2025).
Entries after “also recorded” stand apart in the source; their conditions may differ.

How the values were obtained:
[1] = tested on: neuron-differentiated SH-SY5Y cells; assay: LDH release assay in neuron-differentiated SH-SY5Y cells; assay type: cell-based, human; conditions: for LDH release, dose-response pattern: increasing concentrations
Experimental: (§1) Rat cortical neurons were dissociated using a papain dissociation kit following manufacturer's instructions (Worthington, NJ; Cat #LK003150). Neurons were cultured in neurobasal medium with B27 supplement with 2 mM glutamine, 50 U/ml penicillin and 50 μg/mL. SH-SY5Y and B103 cells were cultured in DMEM (Sigma Cat #D6429-500M) supplemented with 5% fetal bovine serum. SH-SY5Y cells were differentiated with the addition of 10 μM retinoic acid for 7 days prior to experimentation. LDH assays were conducted with a LDH assay kit following manufacturer's instructions (cat #88954).

[2] = tested on: binding of AICD to the MAST4 promoter; assay: ChIP, AICD binding to MAST4 promoter, rat cortical neurons; assay type: cell-based; conditions: 5 μM 27OHC
Experimental: as §1, with “experimentation.” for “experimentation. LDH assays were conducted with a LDH assay kit following manufacturer's instructions (cat #88954).”
Chromatin Immunoprecipitation (ChIP) assays were conducted according to standard protocols published by ABcam. Following treatments, cells were incubated with formaldehyde at a final concentration of 0.75% for 10 minutes followed by glycine at a final concentration of 125 mM for an additional 5 minutes. Cells were then washed two times with Phosphate Buffered Saline (PBS) and lysed in FA lysis buffer (50 mM HEPES-KOH PH 7.5, 140 mM NaCl, 1 mM EDTA, 1% Triton X-100, 0.1% Sodium Deoxycholate, 0.1% SDS, protease inhibitors). Resulting cell lysates were sonicated to fragment DNA, spun down, and incubated with antibody conjugated protein A sepharose beads (ThermoFisher cat #101041) overnight with gentile agitation. Following incubation, beads were pelleted, washed three times with FA lysis buffer, and DNA was eluted with elution buffer (1% SDS, 100 mM NaHCO3). […]

[3] = tested on: MAST4 mRNA; assay: qPCR of MAST4 mRNA, SH-SY5Y cells; assay type: cell-based, human; conditions: 5 μM 27OHC
Experimental: (§2) RNA was purified using TRIzol LS reagent according to the manufacturer's instructions (Thermofisher cat #10296010).
(§3) mRNA was purified with TRIzol reagent, converted to cDNA with reverse transcriptase according to the manufacturer's instructions and quantified with iTaq Universal SYBR Green Supermix (Bio-Rad cat #1725120). Results were determined using the delta-delta cycle threshold (ct) method.

[4] = tested on: MAST4 mRNA; assay: qPCR of MAST4 mRNA, rat cortical neurons; assay type: cell-based; conditions: 5 μM 27OHC
Experimental: as §2, §3

[5] = tested on: FOXO1 phosphorylation by MAST4 kinase; assay: MAST4 in vitro kinase assay on immunoprecipitates from treated cells; assay type: cell-based, human
Experimental: Immunoprecipitations were conducted as outlined by ABcam under non-denaturing conditions.
Kinase activity was measured at 37° C. for 30 minutes in 50 μl kinase buffer (50 mM Tris, pH 7.4, 10 mM MgCl2) supplemented with 50 μM ATP and human recombinant FOXO1 (1 μg; Origene #TP300477). Kinase reactions were run on 4-20% Tris-Glycine polyacrylamide gels (Thermofisher) and byproducts identified with anti phospho-Serine/Threonine antibody (Abcam ab17464).

[6] = tested on: MAST4 mRNA; assay: qPCR of MAST4 mRNA, transfected B103 cells; assay type: cell-based, rat; conditions: B103 APP695, 5 μM 27OHC
Experimental: as §2, §3

[7] = tested on: RTKN2 mRNA; assay: qPCR of RTKN2 mRNA, rat cortical neurons; assay type: cell-based
Experimental: as §2, §3

[8] = tested on: binding of FOXO1 to the RTKN2 promoter; assay: ChIP, FOXO1 binding to RTKN2 promoter, transfected B103 cells; assay type: cell-based, rat; conditions: B103 expressing APP695, 5 μM 27OHC
Experimental: (§4) Chromatin Immunoprecipitation (ChIP) assays were conducted according to standard protocols published by ABcam. Following treatments, cells were incubated with formaldehyde at a final concentration of 0.75% for 10 minutes followed by glycine at a final concentration of 125 mM for an additional 5 minutes. Cells were then washed two times with Phosphate Buffered Saline (PBS) and lysed in FA lysis buffer (50 mM HEPES-KOH PH 7.5, 140 mM NaCl, 1 mM EDTA, 1% Triton X-100, 0.1% Sodium Deoxycholate, 0.1% SDS, protease inhibitors). Resulting cell lysates were sonicated to fragment DNA, spun down, and incubated with antibody conjugated protein A sepharose beads (ThermoFisher cat #101041) overnight with gentile agitation. Following incubation, beads were pelleted, washed three times with FA lysis buffer, and DNA was eluted with elution buffer (1% SDS, 100 mM NaHCO3). Resulting DNA fragments were further purified with a DNA purification kit (Clontech cat #740609.250) prior to qPCR analysis. Antibodies used were anti-APP C-terminus (Sigma #A8717); anti-FOXO1 (Abcam #39670).

[9] = tested on: binding of FOXO1 to the RTKN2 promoter; assay: ChIP, FOXO1 binding to RTKN2 promoter, SH-SY5Y cells; assay type: cell-based, human; conditions: 5 μM 27OHC
Experimental: as §4

[10] = tested on: MAST4 protein expression; assay: Immunoblot of MAST4 protein, SH-SY5Y cells; assay type: cell-based, human; conditions: 5 μM 27OHC
Experimental: (§5) Immunoblotting was conducted as previously described with the following antibodies: APP (Sigma #A8717; Millipore #22C11); MAST4 (GeneTex #GTX87899); FOXO1 (Cell Signaling Technology #2880); RTKN2 (Proteintech #17458-1-AP); caspase-3 (Cell Signaling Technology #9662); caspase-7 (Cell Signaling Technology #9492); actin (Sigma #A5316) (7).

[11] = tested on: B103-APP695 cells; assay: LDH release assay in B103 cells stably transfected with APP695; assay type: cell-based, rat
Experimental: as §1, with “experimentation. Transfections were conducted using Lippofectamine LTX (Thermofisher; cat #A12621) according to the manufacturer's instructions.” for “experimentation.”

[12] = tested on: binding of AICD to the MAST4 promoter; assay: ChIP, AICD binding to MAST4 promoter, SH-SY5Y cells; assay type: cell-based, human; conditions: 5 μM 27OHC
Experimental: as §4

[13] = tested on: binding of FOXO1 to the RTKN2 promoter; assay: ChIP, FOXO1 binding to RTKN2 promoter, rat cortical neurons; assay type: cell-based
Experimental: as §1, with “experimentation.” for “experimentation. LDH assays were conducted with a LDH assay kit following manufacturer's instructions (cat #88954).”
as §4

[14] = tested on: B103-APP695 cells; assay: LIVE/DEAD assay in B103-APP695 cells; assay type: cell-based, rat; conditions: 50 μM 27OHC, APP-expressing cells
Experimental: Live dead cell assays were conducted with live dead cell assay kit according to the manufacturer's instructions (Thermofisher #L3224).

[15] = tested on: binding of AICD to the MAST4 promoter; assay: ChIP, AICD binding to MAST4 promoter, transfected B103 cells; assay type: cell-based, rat
Experimental: as §4

[16] = tested on: RTKN2 mRNA; assay: qPCR of RTKN2 mRNA, SH-SY5Y cells; assay type: cell-based, human; conditions: control siRNA, 5 μM 27OHC
Experimental: as §2, §3

[17] = tested on: RTKN2 protein expression; assay: Immunoblot of RTKN2 protein, rat cortical neurons; assay type: cell-based; conditions: cytoprotective doses, 2.5 and 5 μM 27OHC
Experimental: as §5

[18] = tested on: RTKN2 mRNA; assay: qPCR of RTKN2 mRNA, transfected B103 cells; assay type: cell-based, rat; conditions: B103 with APP695, 5 μM 27OHC
Experimental: as §2, §3

[19] = tested on: B103-EV cells; assay: LDH release assay in B103 cells with empty vector (lack APP); assay type: cell-based, rat; conditions: absence of APP, 18 hours
Experimental: as §1, with “experimentation. Transfections were conducted using Lippofectamine LTX (Thermofisher; cat #A12621) according to the manufacturer's instructions.” for “experimentation.”

[20] = tested on: activated caspase-3, activated caspase-7 and Bax/Bcl2 ratio; assay: Immunoblot of active caspases 3 and 7, Bax, Bcl-2 and RTKN2 in treated cells; assay type: cell-based
Experimental: as §5

CC(C)C(O)CC[C@@H](C)[C@H]1CC[C@H]2[C@@H]3CC=C4C[C@@H](O)CC[C@]4(C)[C@H]3CC[C@]12C (stereo partly drawn) [24OHC, 24-hydroxycholesterol]
LDH release, dose-response pattern ([1]; 18 hours): had no effect; also recorded: No LDH changes are measurable

C[C@@H](CO)CCC[C@@H](C)[C@H]1CC[C@H]2[C@@H]3CC=C4C[C@@H](O)CC[C@]4(C)[C@H]3CC[C@]12C [27OHC, 27-hydroxycholesterol]
cytotoxicity (LDH) ([1]; 15, 25, and 50 μM treatments): increasing cytotoxicity | concentration of maximum protective effect (LDH) ([1]; 18 hours): 5 µM | LDH release compared to baseline (solvent alone) ([1]; concentrations below 10 μM, 18 hours): decreased LDH compared to baseline | cytotoxicity (LDH release) ([1]; higher concentrations (than 10 μM), 18 hours): dose-dependent cytotoxicity | LDH release, dose-response pattern ([1]; 18 hours): biphasic dose-dependent cellular response | AICD interaction with the MAST4 promoter [2]: AICD also interacts with the MAST4 promoter | MAST4 mRNA levels [3]: elevated MAST4 mRNA levels | MAST4 mRNA levels [4]: also present in rat primary neurons | FOXO1 phosphorylation in MAST4 immunoprecipitates ([5]; cells treated with 5 μM 27OHC): Increased FOXO1 phosphorylation | FOXO1 phosphorylation in MAST4 immunoprecipitates ([5]; cells treated with 50 μM 27OHC): No increase in pSer-FOXO1 | MAST4 mRNA levels [6]: elevated MAST4 mRNA levels | RTKN2 mRNA: upregulated at 5 μM but not 50 μM ([7]; 5 and 50 μM 27OHC, FIG. 3J): confirmed in rat cortical neurons | RTKN2 mRNA ([7]; cytoprotective doses, 2.5 and 5 μM 27OHC): increased RTKN2 mRNA | FOXO1 binding to the RTKN2 promoter [8]: FOXO1 binding was also decreased | FOXO1 binding to the RTKN2 promoter [9]: decrease of that binding | MAST4 protein expression [10]: MAST4 protein expression increased | LDH levels ([11]; 5 μM 27OHC): reduced LDH levels | cytotoxicity (LDH) ([11]; doses greater than 10 μM): dose-dependently cytotoxic | LDH levels, dose-response pattern ([11]; presence of APP695, 18 hours): biphasic response comparable to that shown by SH-SY5Y cells; also recorded: biphasic pattern | AICD binding to the MAST4 promoter [12]: AICD does bind to the MAST4 promoter | FOXO1 binding to the RTKN2 promoter: decreased at 5 μM but not 50 μM ([13]; 5 and 50 μM 27OHC, FIG. 3F): confirmed in rat cortical neurons | FOXO1 binding to the RTKN2 promoter ([13]; 15, 25, and 50 μM 27OHC): increasing | FOXO1 binding to the RTKN2 promoter ([13]; cytoprotective doses, 2.5 and 5 μM 27OHC (b174 prints 5 M)): decreased binding of FOXO1 to the RTKN2 promoter | dead/live cell abundance [14]: protective | AICD binding to the MAST4 promoter ([15]; B103 expressing APPG700A, 5 μM 27OHC): an effect not seen in cells expressing APPG700A | AICD binding to the MAST4 promoter ([15]; B103 transfected with APP695, 5 μM 27OHC): increased AICD binding to the MAST4 promoter | RTKN2 mRNA [16]: increased RTKN2 mRNA | RTKN2 protein expression [17]: increased | RTKN2 mRNA [18]: RTKN2 was upregulated | LDH levels, dose-response [19]: increased LDH levels in a dose-dependent manner; also recorded: Cytotoxicity is dose-dependent | Bcl-2 ([20]; 5 μM 27OHC): robust increase in Bcl-2 | RTKN2 protein ([20]; 5 μM 27OHC): robust increase in Bcl-2 and RTKN2 | active forms of caspases 3 and 7 ([20]; 5 μM 27OHC): decrease in active forms of both caspases | Bcl-2 ([20]; 50 μM 27OHC): decreased Bcl-2 | active forms of caspases 3 and 7 ([20]; 50 μM 27OHC): increased the active forms of both caspases
